Reference: paper PMC11995216, “End-to-End Backbone Cyclization Enhances Passive Permeability of bRo5 Oligomeric Depsipeptides with Nonlinear Size Dependence” (ACS Medicinal Chemistry Letters, 2025)
Where “and” joins values, the source holds several entries; their conditions need not be identical. Equal entries are not always repeated. Where two headings read alike, the source gives them in different places. Blank lines part the entries; values can stand above or below the compound they belong to. Starred links: 1 amine or outer side, 2 acyl side, 3 side chain; linkers in the order of their positions; H or OH if unused. Non-standard residues stand in square brackets, D forms with d. Residues, ends and D or L forms follow the SMILES beside them. X1 = CCCCC[C@H](O[*:1])C(=O)[*:2]; Ahp(2) = CCCCC[C@H](N)C(=O)O; dNMeA = CN[C@H](C)C(=O)O

Key:
[1] = PAMPA, 500 uM
PAMPA [2] = conditions: calculated using Supplement Equation 1, UV detection
PAMPA [3] = system: PAMPA
PAMPA [4] = conditions: Well 3 / [acc]; Well 3; initial concentration 500 uM; UV detection
in vitro = conditions: PAMPA, Papp
PAMPA [5] = conditions: initial concentration 500 uM, UV detection
PAMPA [6] = conditions: UV detection
PAMPA [7] = conditions: initial concentration 500 uM
[8] = PAMPA, permeability assay across an artificial membrane; conditions: increase: difference between percent diffusion of macrocycle vs linear counterpart
[9] = PAMPA, cited from earlier work; for LogPapp: ratio-based method, series 2 macrocycles, previously reported, ref Thorpe et al., Chem. Sci. 2024, 15, 14977
Caco‐2 = assay: Experimental Caco‐2 permeability; format: in vitro ADME; conditions: Caco‐2 experiments, series 2
Procedure: Johnston et al. Supporting information
5.1 Comparison of Experimental Caco‐2 Papp to Calculated LogP
Experimental Caco‐2 vs. Calculated Permeabilities fo r Series 2
*C2.3 was not detected in Caco‐2 experiments
VI. LC/MS and ELSD Traces
In all cases, the large peak near the beginning of the run (R.T. 2‐6 minutes), is the DMSO solvent front.
(also on this page, place not known: 00 . 511 . 522 . 533 . 5 Caco2 Papp (x 10‐6 cm/s) Experimental for)

Δ % diffusion [1]: ↑22% | %T (PAMPA [2]; Well 1 / %T, Well 1): 0.91% and 0.93% | %T (PAMPA [2]; Well 2 / %T, Well 2): 0.86% and 0.92% | %T (PAMPA [2]; Well 3 / %T, Well 3): 0.89% | %T (PAMPA [2]; Well 4 / %T, Well 4): 0.92% and 0.96% | %T (PAMPA [2]; Well 5 / %T, Well 5): 0.93% and 0.99% | Papp (PAMPA [3]; Papp (x 10^-6 cm/s) – ELSD Detection / [row 1], ELSD Detection): 14.3 ×10⁻⁶ cm/s | Papp (PAMPA [3]; Papp (x 10^-6 cm/s) – ELSD Detection / [row 2], ELSD Detection): 13.6 ×10⁻⁶ cm/s | Papp (PAMPA [3]; Papp (x 10^-6 cm/s) – ELSD Detection / [row 3], ELSD Detection): 13.9 ×10⁻⁶ cm/s | Papp (PAMPA [3]; Papp (x 10^-6 cm/s) – ELSD Detection / [row 4], ELSD Detection): 15.4 ×10⁻⁶ cm/s | Papp (PAMPA [3]; Papp (x 10^-6 cm/s) – ELSD Detection / [row 5], ELSD Detection): 15 ×10⁻⁶ cm/s | Papp (PAMPA [3]; Papp (x 10^-6 cm/s) – ELSD Detection / [row 6], ELSD Detection): 11.7 ×10⁻⁶ cm/s | Papp (PAMPA [3]; Papp (x 10^-6 cm/s) – ELSD Detection / [row 7], ELSD Detection): 14.1 ×10⁻⁶ cm/s | Papp (PAMPA [3]; Papp (x 10^-6 cm/s) – ELSD Detection / [row 8], ELSD Detection): 15 ×10⁻⁶ cm/s | Papp (PAMPA [3]; Papp (x 10^-6 cm/s) – ELSD Detection / [row 9], ELSD Detection): 14.8 ×10⁻⁶ cm/s | Papp (PAMPA [3]; Papp (x 10^-6 cm/s) – ELSD Detection / [row 10], ELSD Detection): 13.6 ×10⁻⁶ cm/s | Papp (PAMPA [3]; Papp (x 10^-6 cm/s) – UV Detection / [row 1], UV Detection): 15.1 ×10⁻⁶ cm/s | Papp (PAMPA [3]; Papp (x 10^-6 cm/s) – UV Detection / [row 2], UV Detection): 14.2 ×10⁻⁶ cm/s | Papp (PAMPA [3]; Papp (x 10^-6 cm/s) – UV Detection / [row 3], UV Detection): 12.7 ×10⁻⁶ cm/s | Papp (PAMPA [3]; Papp (x 10^-6 cm/s) – UV Detection / [row 4], UV Detection): 18 ×10⁻⁶ cm/s | Papp (PAMPA [3]; Papp (x 10^-6 cm/s) – UV Detection / [row 5], UV Detection): 19 ×10⁻⁶ cm/s | Papp (PAMPA [3]; Papp (x 10^-6 cm/s) – UV Detection / [row 6], UV Detection): 13.8 ×10⁻⁶ cm/s | Papp (PAMPA [3]; Papp (x 10^-6 cm/s) – UV Detection / [row 7], UV Detection): 11.2 ×10⁻⁶ cm/s | Papp (PAMPA [3]; Papp (x 10^-6 cm/s) – UV Detection / [row 8], UV Detection): 12.7 ×10⁻⁶ cm/s | Papp (PAMPA [3]; Papp (x 10^-6 cm/s) – UV Detection / [row 9], UV Detection): 14.3 ×10⁻⁶ cm/s | Papp (PAMPA [3]; Papp (x 10^-6 cm/s) – UV Detection / [row 10], UV Detection): 15 ×10⁻⁶ cm/s | Papp at 500 uM (in vitro): 14.6 ± 2.38 ×10⁻⁶ cm/s | Papp at 500 uM (in vitro; Ave): 14.1 ×10⁻⁶ cm/s | % recovery (PAMPA [6]; Well 1 / %R, Well 1): 93% and 89% | % recovery (PAMPA [6]; Well 2 / %R, Well 2): 93% and 90% | % recovery (PAMPA [6]; Well 3 / %R, Well 3): 92% and 95% | % recovery (PAMPA [6]; Well 4 / %R, Well 4): 99% and 95% | % recovery (PAMPA [6]; Well 5 / %R, Well 5): 99%
SMILES: CCCCC[C@@H]1OC(=O)[C@@H](C)N(C)C1=O [Compound C1.1]
acceptor concentration after incubation (PAMPA [4]): 193 µM | donor concentration after incubation (PAMPA [5]; Well 1 / [donor], Well 1): 259 µM and 253 µM | donor concentration after incubation (PAMPA [5]; Well 2 / [donor], Well 2): 262 µM and 271 µM | donor concentration after incubation (PAMPA [5]; Well 3 / [donor], Well 3): 267 µM and 276 µM | donor concentration after incubation (PAMPA [5]; Well 4 / [donor], Well 4): 264 µM and 266 µM | donor concentration after incubation (PAMPA [5]; Well 5 / [donor], Well 5): 250 µM and 261 µM | Acceptor Concentration (PAMPA [7]; Acceptor Concentration (uM) – ELSD Detection / [row 1], ELSD Detection): 225 µM | Acceptor Concentration (PAMPA [7]; Acceptor Concentration (uM) – ELSD Detection / [row 2], ELSD Detection): 205 µM | Acceptor Concentration (PAMPA [7]; Acceptor Concentration (uM) – ELSD Detection / [row 3], ELSD Detection): 212 µM | Acceptor Concentration (PAMPA [7]; Acceptor Concentration (uM) – ELSD Detection / [row 4], ELSD Detection): 216 µM | Acceptor Concentration (PAMPA [7]; Acceptor Concentration (uM) – ELSD Detection / [row 5], ELSD Detection): 207 µM | Acceptor Concentration (PAMPA [7]; Acceptor Concentration (uM) – ELSD Detection / [row 6], ELSD Detection): 206 µM | Acceptor Concentration (PAMPA [7]; Acceptor Concentration (uM) – ELSD Detection / [row 7], ELSD Detection): 216 µM | Acceptor Concentration (PAMPA [7]; Acceptor Concentration (uM) – ELSD Detection / [row 8], ELSD Detection): 218 µM | Acceptor Concentration (PAMPA [7]; Acceptor Concentration (uM) – ELSD Detection / [row 9], ELSD Detection): 208 µM | Acceptor Concentration (PAMPA [7]; Acceptor Concentration (uM) – ELSD Detection / [row 10], ELSD Detection): 202 µM | Acceptor Concentration (PAMPA [7]; Acceptor Concentration (uM) – UV Detection / [row 1], UV Detection): 208 µM | Acceptor Concentration (PAMPA [7]; Acceptor Concentration (uM) – UV Detection / [row 2], UV Detection): 204 µM | Acceptor Concentration (PAMPA [7]; Acceptor Concentration (uM) – UV Detection / [row 3], UV Detection): 193 µM | Acceptor Concentration (PAMPA [7]; Acceptor Concentration (uM) – UV Detection / [row 4], UV Detection): 231 µM | Acceptor Concentration (PAMPA [7]; Acceptor Concentration (uM) – UV Detection / [row 5], UV Detection): 245 µM | Acceptor Concentration (PAMPA [7]; Acceptor Concentration (uM) – UV Detection / [row 6], UV Detection): 193 µM | Acceptor Concentration (PAMPA [7]; Acceptor Concentration (uM) – UV Detection / [row 7], UV Detection): 178 µM | Acceptor Concentration (PAMPA [7]; Acceptor Concentration (uM) – UV Detection / [row 8], UV Detection): 199 µM | Acceptor Concentration (PAMPA [7]; Acceptor Concentration (uM) – UV Detection / [row 9], UV Detection): 208 µM | Acceptor Concentration (PAMPA [7]; Acceptor Concentration (uM) – UV Detection / [row 10], UV Detection): 209 µM

SMILES: CCCCC[C@@H]1NC(=O)[C@@H](C)N(C)C(=O)[C@H](CCCCC)NC(=O)[C@@H](C)N(C)C(=O)[C@H](CCCCC)OC(=O)[C@@H](C)N(C)C(=O)[C@H](CCCCC)NC(=O)[C@@H](C)N(C)C1=O [Compound C2.4] (cyclo([Ahp(2)][dNMeA][Ahp(2)][dNMeA][Ahp(2)][dNMeA][X1][dNMeA]))
Δ % diffusion [8]: ↑7% | LogPapp [9]: -5.33 ± 0.07

SMILES: CCCCC[C@@H]1NC(=O)[C@@H](C)N(C)C(=O)[C@H](CCCCC)OC(=O)[C@@H](C)N(C)C(=O)[C@H](CCCCC)NC(=O)[C@@H](C)N(C)C(=O)[C@H](CCCCC)OC(=O)[C@@H](C)N(C)C1=O [Compound C2.3] (cyclo([Ahp(2)][dNMeA][X1][dNMeA][Ahp(2)][dNMeA][X1][dNMeA]))
Δ % diffusion [8]: ↑10% | LogPapp [9]: -5.23 ± 0.04 | Experimental Caco‐2 Papp (Caco‐2): not detected

SMILES: CC(C)NC[C@H](O)COc1cccc2ccccc12 [(S)‐Propranolol, reference compound]
Literature Papp ([9]; ref Schmidt, D., Lynch, J. 2003, Millipore): 10.0 x 10‐6

SMILES: CCCCC[C@@H]1NC(=O)[C@@H](C)N(C)C(=O)[C@H](CCCCC)OC(=O)[C@@H](C)N(C)C(=O)[C@H](CCCCC)OC(=O)[C@@H](C)N(C)C(=O)[C@H](CCCCC)NC(=O)[C@@H](C)N(C)C1=O [Compound C2.2] (cyclo([Ahp(2)][dNMeA][Ahp(2)][dNMeA][X1][dNMeA][X1][dNMeA]))
Δ % diffusion [8]: ↑17% | LogPapp [9]: -5.05 ± 0.03

SMILES: CCCCC[C@@H]1NC(=O)[C@@H](C)N(C)C(=O)[C@H](CCCCC)OC(=O)[C@@H](C)N(C)C(=O)[C@H](CCCCC)OC(=O)[C@@H](C)N(C)C(=O)[C@H](CCCCC)OC(=O)[C@@H](C)N(C)C1=O [Compound C2.1] (cyclo([Ahp(2)][dNMeA][X1][dNMeA][X1][dNMeA][X1][dNMeA]))
Δ % diffusion [8]: ↑19% | LogPapp [9]: -4.91 ± 0.09

SMILES: CCCCC[C@@H]1NC(=O)[C@@H](C)N(C)C(=O)[C@H](CCCCC)NC(=O)[C@@H](C)N(C)C(=O)[C@H](CCCCC)NC(=O)[C@@H](C)N(C)C(=O)[C@H](CCCCC)NC(=O)[C@@H](C)N(C)C1=O [Compound C2.5] (cyclo([Ahp(2)][dNMeA][Ahp(2)][dNMeA][Ahp(2)][dNMeA][Ahp(2)][dNMeA]))
Δ % diffusion [1]: ↑6% | LogPapp [9]: -5.31 ± 0.04
